Measurements as given in publication PMC5851651, “Population-specific design of de-immunized protein biotherapeutics” (PLoS Computational Biology, 2018).

Experiments:
[1] = tested on: DRB1*15:01, DRB1*03:01 and DRB1*07:01; experiment: Experimental immunogenicity score: relative HLA binding combined across alleles, weighted by allele frequency; parameters: species or system human; key: allele-frequency-weighted sum of binding, % of control peptide signal; details: for Experimental Score: per peptide, weights DRB1*15:01 0.162, DRB1*07:01 0.146, DRB1*03:01 0.143; for Difference to WT (Experimental Score): per peptide against wild-type counterpart
Experimental: (§1) To test the designs, we synthesized twenty overlapping 15-mer peptides containing the introduced mutations and their wild-type counterparts. The peptides maximally covered the predicted epitopes around the mutations of all designed constructs that contained one and two mutations (Supplementary S2 Table). The affinity of these peptides to the three HLA alleles was measured at time zero and after 24 hours (Methods, Supplementary S3 and S4 Tables). We linearly combined the measured relative affinity scores across HLA alleles weighted by their allele frequencies for each peptide respectively to produce a score that approximates the overall immunogenicity (Fig 5A). Results are presented for measurements taken at time point zero. […] Overall, the measured and predicted immunogenicity of the tested peptides correlated well with r = 0.76 (CI95 = [0.48, 0.91], t = 4.885, df = 17, p-value = 1.4e-4; Fig 5A). Next, we compared the predicted and measured gain or loss in immunogenicity for the whole region by reconstructing the targeted region using overlapping peptides. The measured relative scores were linearly combined (as previously) and then normalized to the number of overlapping peptides used in the reconstruction (Fig 5B). The difference in the measured scores between the wild type and mutant regions can be thought of as a proxy for gain or loss in immunogenicity and correlated well to the predicted changes (r = 0.86, CI95 = [0.40, 0.97], t = 4.136, df = 6, p-value = 6.1e-3; Fig 5B).
Fig 5 (A) Correlation of experimental and predicted immunogenicity of each peptide. The experimental immunogenicity score of a peptide is defined as the linear combination of the individual experimentally determined relative HLA binding affinity of each HLA allele h ∈ H weighted by the HLA allele frequency. (B) Correlation of experimental and predicted immunogenicity of the whole redesigned region. The summarized immunogenicity score of the whole region is the linear combination of the overlapping peptides used to reconstruct the region, normalized by total number of peptides used. The predicted immunogenicity scores per peptide were computed according to our immunogenicity objective function. The red lines are a fitted linear regression and the red tubes represent their 95-confidence interval.
(§2) In order to experimentally verify our in silico predictions for Factor VIII, we utilized the commercial REVEAL HLA-Peptide binding assay of ProImmune (www.proimmune.com). Peptides were synthesized using the PEPscreen custom library synthesis method, yielding high purity peptides for experimental analysis. HLA-peptide binding was assessed for the three HLA-DRB1 alleles used in this study (DRB1*15:01, DRB1*03:01 and DRB1*07:01). In short, the method compares the affinity of the studied peptide to the affinity of a high-affinity control peptide. Each peptide is then scored for binding to a certain HLA molecule relative to the score of the control peptide and reported as the percentage of the signal generated by the control peptide.

DRB1*07:01 = DRB1*07:01 (Homo sapiens, UniProt P01903+P01911, A100R/A102G/A103Q/D57E/D86V/E43K/F76Y/K127E/L162R/M171V/P40G/Q125H/Q99D/R33Q/R42Y/R54Q/S133A/S66F/T210M/V115G/Y107V/Y59L/Y89S); experiment: REVEAL HLA-Peptide binding assay (ProImmune); details: score relative to high-affinity control peptide, percentage of the control signal
Experimental: as §1, §2

DRB1*03:01 = target: T1, DRB1*03:01 (Homo sapiens, UniProt P01903+P01911, A100K/A102G/A103R/A169T/F55Y/I96L/K41T/L162R/M171V/P40S/Q125H/Q178H/Q39Y/R42S/S66N/T106N/T262R/W38E/Y61H); experiment: REVEAL HLA-Peptide binding assay (ProImmune); details: score relative to high-affinity control peptide, percentage of the control signal
T1 construct: purchased ProImmune
Experimental: as §1, §2

DRB1*15:01 = target: T2, DRB1*15:01 (Homo sapiens, UniProt P01903+P01911); experiment: REVEAL HLA-Peptide binding assay (ProImmune); details: score relative to high-affinity control peptide, percentage of the control signal
T2 construct: purchased ProImmune
Experimental: as §1, §2

[2] = time 0 (H0), listed as VNSLDPPLLTRYLRI
[3] = time 0 (H0), listed as LRIHPQSWVHHIALRM
[4] = time 0 (H0), listed as LTRLLRIHPQSWEHQ
[5] = time 0 (H0), listed as LRIHPQSWEHQIALRM
[6] = time 0 (H0), listed as VNSLDPPLYTRYLRI
[7] = time 0 (H0), listed as TTRYLRIHPQSWEHQ
[8] = time 0 (H0), listed as VNSLDPPLFTRYLRI
[9] = time 0 (H0), listed as YTRYLRIHPQSWEHQ
[10] = time 0 (H0), listed as VNSLDPPLTTRYLRI
[11] = time 0 (H0), listed as LRIHPQSWVHQIALRM
[12] = time 0 (H0), listed as LTRYLRIHPQSWVHQ

Sequence | DRB1*07:01 (DRB1*07:01; after 24 hours (H24)) [%] | DRB1*07:01 (DRB1*07:01; time 0 (H0)) [%] | DRB1*03:01 (DRB1*03:01; after 24 hours (H24)) [%] | DRB1*03:01 (DRB1*03:01; time 0 (H0)) [%] | DRB1*15:01 (DRB1*15:01; after 24 hours (H24)) [%] | DRB1*15:01 (DRB1*15:01; time 0 (H0)) [%] | Experimental Score ([1]; after 24 hours (H24)) | Experimental Score ([1]; time 0 (H0)) | Difference to WT (Experimental Score) ([1]; after 24 hours (H24)) | Difference to WT (Experimental Score) ([1]; time 0 (H0)) | other results
LRIHPQSWVHHIALRM [Design M-5, peptide covering Q2335H] | 40.700 | 65.265 | 0.000 | 0.555 | 20.400 | 47.784 | 9.247 | 17.349 | 0.870 | 0.779 | DRB1*07:01 (DRB1*07:01; [3]): 65.3%; DRB1*03:01 (DRB1*03:01; [3]): 0.6%; DRB1*15:01 (DRB1*15:01; [3]): 47.8%
LRIHPQSWEHQIALRM [Design M-6, peptide covering V2333E] | 19.800 | 32.020 | 0.000 | 0.157 | 11.600 | 44.319 | 4.770 | 11.877 | -3.607 | -4.693 | DRB1*07:01 (DRB1*07:01; [5]): 32%; DRB1*03:01 (DRB1*03:01; [5]): 0.2%; DRB1*15:01 (DRB1*15:01; [5]): 44.3%
VNSLDPPLYTRYLRI [Design M-3, peptide covering L2321Y] | 0.900 | 3.600 | 0.000 | 0.000 | 0.000 | 0.000 | 0.131 | 0.526 | 0.077 | -0.871 | DRB1*07:01 (DRB1*07:01; [6]): 3.6%; DRB1*03:01 (DRB1*03:01; [6]): 0%; DRB1*15:01 (DRB1*15:01; [6]): 0%
VNSLDPPLFTRYLRI [Design M-1, peptide covering L2321F] | 0.497 | 6.490 | 0.165 | 0.165 | 0.000 | 0.427 | 0.096 | 1.040 | 0.042 | -0.356 | DRB1*07:01 (DRB1*07:01; [8]): 6.5%; DRB1*03:01 (DRB1*03:01; [8]): 0.2%; DRB1*15:01 (DRB1*15:01; [8]): 0.4%
VNSLDPPLTTRYLRI [Design M-2, peptide covering L2321T] | 0.000 | 0.100 | 0.000 | 0.100 | 0.000 | 0.000 | 0.000 | 0.029 | -0.054 | -1.367 | DRB1*07:01 (DRB1*07:01; [10]): 0.1%; DRB1*03:01 (DRB1*03:01; [10]): 0.1%; DRB1*15:01 (DRB1*15:01; [10]): 0%

More lines, main results first:

DRB1*07:01 (DRB1*07:01; after 24 hours (H24)) [%] | DRB1*07:01 (DRB1*07:01; time 0 (H0)) [%] | DRB1*03:01 (DRB1*03:01; after 24 hours (H24)) [%] | DRB1*03:01 (DRB1*03:01; time 0 (H0)) [%] | DRB1*15:01 (DRB1*15:01; after 24 hours (H24)) [%] | DRB1*15:01 (DRB1*15:01; time 0 (H0)) [%] | Sequence | Experimental Score ([1]; after 24 hours (H24)) | Experimental Score ([1]; time 0 (H0)) | Difference to WT (Experimental Score) ([1]; after 24 hours (H24)) | Difference to WT (Experimental Score) ([1]; time 0 (H0)) | other results
0.370 | 0.810 | 0.000 | 0.697 | 0.000 | 7.274 | VNSLDPPLLTRYLRI [WT-1, wild-type peptide of Factor VIII C2 domain, reference compound] | 0.054 | 1.396 | – | – | DRB1*07:01 (DRB1*07:01; [2]): 0.8%; DRB1*03:01 (DRB1*03:01; [2]): 0.7%; DRB1*15:01 (DRB1*15:01; [2]): 7.3%
20.100 | 33.528 | 0.000 | 0.026 | 0.100 | 5.445 | LTRLLRIHPQSWEHQ [Design M-7, peptide covering Y2324L, V2333E] | 2.951 | 5.781 | -10.436 | -11.941 | DRB1*07:01 (DRB1*07:01; [4]): 33.5%; DRB1*03:01 (DRB1*03:01; [4]): 0%; DRB1*15:01 (DRB1*15:01; [4]): 5.4%
49.600 | 71.612 | 0.000 | 0.544 | 1.600 | 6.575 | TTRYLRIHPQSWEHQ [Design M-11, peptide covering L2321T, V2333E] | 7.501 | 11.598 | -5.886 | -6.123 | DRB1*07:01 (DRB1*07:01; [7]): 71.6%; DRB1*03:01 (DRB1*03:01; [7]): 0.5%; DRB1*15:01 (DRB1*15:01; [7]): 6.6%
35.522 | 40.243 | 0.000 | 0.226 | 0.00277 | 5.029 | RIHPQSWVHQIALRM [WT-2, wild-type peptide of Factor VIII C2 domain, reference compound] | 5.187 | 6.723 | – | – | –
40.700 | 59.728 | 0.200 | 0.155 | 0.700 | 3.876 | YTRYLRIHPQSWEHQ [Design M-12, peptide covering L2321Y, V2333E] | 6.084 | 9.370 | -7.303 | -8.351 | DRB1*07:01 (DRB1*07:01; [9]): 59.7%; DRB1*03:01 (DRB1*03:01; [9]): 0.2%; DRB1*15:01 (DRB1*15:01; [9]): 3.9%
38.252 | 56.788 | 0.021 | 0.200 | 17.219 | 50.927 | LRIHPQSWVHQIALRM [WT-4, wild-type peptide of Factor VIII C2 domain, reference compound] | 8.377 | 16.570 | – | – | DRB1*07:01 (DRB1*07:01; [11]): 56.8%; DRB1*03:01 (DRB1*03:01; [11]): 0.2%; DRB1*15:01 (DRB1*15:01; [11]): 50.9%
74.002 | 87.324 | 0.243 | 0.243 | 15.728 | 30.478 | LTRYLRIHPQSWVHQ [WT-3, wild-type peptide of Factor VIII C2 domain, reference compound] | 13.387 | 17.722 | – | – | DRB1*07:01 (DRB1*07:01; [12]): 87.3%; DRB1*03:01 (DRB1*03:01; [12]): 0.2%; DRB1*15:01 (DRB1*15:01; [12]): 30.5%
